Test results taken from ChEMBL document CHEMBL3580594, “Synthesis and biological evaluation of 4-substituted fluoronucleoside analogs for the treatment of hepatitis B virus infection” (J Med Chem, 2015).

Tests used:
[1] = Cytotoxicity against human HepG2.2.15 cells by MTT assay; format: cell-based, HepG2 2.2.15
[2] = system: Hepatitis B virus; assay: Antiviral activity against Hepatitis B virus in HepG2.CW cells assessed as inhibition of viral DNA replication at 1 uM after 9 days by real-time FQ-PCR analysis; format: functional; details: 216 h
[3] = system: Rattus norvegicus; assay: In vivo drug formation in rat urine sample treated with 1-((2R,3S,4R,5R)-5-Azido-3-fluoro-4-hydroxy-5-(hydroxymethyl)tetrahydrofuran-2-yl)-4-(cyclopropylamino)-pyrimidin-2(1H)-one by LC-MS/MS analysis; format: ADME, organism-based
[4] = system: Hepatitis B virus; assay: Antiviral activity against wild type Hepatitis B virus; format: functional, organism-based
[5] = system: Rattus norvegicus; assay: In vivo drug formation in rat urine sample treated with 1-((2R,3S,4R,5R)-5-Azido-3-fluoro-4-hydroxy-5-(hydroxymethyl)tetrahydrofuran-2-yl)-4-(cyclopropylamino)-pyrimidin-2(1H)-one by NMR spectrum; format: ADME, organism-based
[6] = system: Hepatitis B virus; assay: Antiviral activity against lamivudine-resistant Hepatitis B virus; format: functional, organism-based
[7] = system: Rattus norvegicus; assay: In vivo drug formation in rat plasma sample treated with 1-((2R,3S,4R,5R)-5-Azido-3-fluoro-4-hydroxy-5-(hydroxymethyl)tetrahydrofuran-2-yl)-4-(cyclopropylamino)-pyrimidin-2(1H)-one by LC-MS/MS analysis; format: ADME, organism-based
[8] = system: Rattus norvegicus; assay: In vivo drug formation in rat bile sample treated with 1-((2R,3S,4R,5R)-5-Azido-3-fluoro-4-hydroxy-5-(hydroxymethyl)tetrahydrofuran-2-yl)-4-(cyclopropylamino)-pyrimidin-2(1H)-one by LC-MS/MS analysis; format: ADME, organism-based
[9] = system: Hepatitis B virus; assay: Antiviral activity against Hepatitis B virus in HepG2.2.15 cells assessed as inhibition of intracellular viral DNA replication at 0.1 uM after 9 days by real-time FQ-PCR analysis; format: functional; details: HepG2 2.2.15, 216 h
[10] = system: Hepatitis B virus; assay: Antiviral activity against Hepatitis B virus in HepG2.2.15 cells assessed as inhibition of intracellular viral DNA replication at 0.1 uM after 3 days by real-time FQ-PCR analysis; format: functional; details: HepG2 2.2.15, 72 h
[11] = system: Hepatitis B virus; assay: Antiviral activity against Hepatitis B virus in HepG2.2.15 cells assessed as inhibition of intracellular viral DNA replication at 0.1 uM after 6 days by real-time FQ-PCR analysis; format: functional; details: HepG2 2.2.15, 144 h
[12] = system: Hepatitis B virus; assay: Antiviral activity against Hepatitis B virus in HepG2.2.15 cells assessed as inhibition of extracellular viral DNA replication at 0.1 uM after 3 days by real-time FQ-PCR analysis; format: functional; details: HepG2 2.2.15, 72 h
[13] = system: Hepatitis B virus; assay: Antiviral activity against Hepatitis B virus in HepG2.2.15 cells assessed as inhibition of extracellular viral DNA replication at 0.1 uM after 9 days by real-time FQ-PCR analysis; format: functional; details: HepG2 2.2.15, 216 h
[14] = system: Hepatitis B virus; assay: Antiviral activity against Hepatitis B virus in HepG2.2.15 cells assessed as inhibition of extracellular viral DNA replication at 0.1 uM after 6 days by real-time FQ-PCR analysis; format: functional; details: HepG2 2.2.15, 144 h
[15] = system: Duck hepatitis B virus; assay: Antiviral activity against duck Hepatitis B virus infected in duck assessed as inhibition of viral DNA replication in serum at 20 mg/kg/day, po measured after 3 days of treatment withdrawal; format: functional; details: 72 h
[16] = Oral bioavailability in Sprague-Dawley rat at 32 mg/kg; format: ADME, organism-based; details: in vivo
[17] = system: Duck hepatitis B virus; assay: Antiviral activity against duck Hepatitis B virus infected in duck assessed as inhibition of viral DNA replication in liver at 20 mg/kg/day, po treatment initiated at day 5 after infection relative to control; format: functional; details: 120 h
[18] = system: Duck hepatitis B virus; assay: Antiviral activity against duck Hepatitis B virus infected in duck assessed as inhibition of viral DNA replication in liver at 20 mg/kg/day, po measured after 3 days of treatment withdrawal; format: functional; details: 72 h
[19] = system: Duck hepatitis B virus; assay: Antiviral activity against duck Hepatitis B virus infected in duck assessed as inhibition of viral DNA replication in liver at 20 mg/kg/day, po treatment initiated at day 10 after infection relative to control; format: functional; details: 240 h
[20] = Tmax in Sprague-Dawley rat at 32 mg/kg, po; format: ADME, organism-based; details: in vivo
[21] = system: Duck hepatitis B virus; assay: Antiviral activity against duck Hepatitis B virus infected in duck assessed as inhibition of viral DNA replication in serum at 20 mg/kg/day, po treatment initiated at day 5 after infection relative to control; format: functional; details: 120 h
[22] = system: Duck hepatitis B virus; assay: Antiviral activity against duck Hepatitis B virus infected in duck assessed as inhibition of viral DNA replication in serum at 20 mg/kg/day, po treatment initiated at day 10 after infection relative to control; format: functional; details: 240 h
[23] = Cmax in Sprague-Dawley rat at 32 mg/kg, po; format: ADME, organism-based; parameters: dose 32 mg/kg, route oral; details: in vivo

[N-]=[N+]=N[C@]1(CO)O[C@@H](n2ccc(NC3CCCCC3)nc2=O)[C@@H](F)[C@@H]1O
CC50 [1]: > 125 µM
inhibition at 1 µM [2]: 23.6%

[N-]=[N+]=N[C@]1(CO)O[C@@H](n2ccc(NC3CCCC3)nc2=O)[C@@H](F)[C@@H]1O
CC50 [1]: > 125 µM
inhibition at 1 µM [2]: 37.3%

[N-]=[N+]=N[C@]1(CO)O[C@@H](n2ccc(N)nc2=O)[C@@H](F)[C@@H]1O [RO-0622]
Drug metabolism [3]: metabolite_detected
EC50 [4]: 0.12 µM
Drug metabolism [5]: metabolite_detected
EC50 [6]: 0.27 µM

[N-]=[N+]=N[C@]1(CO)O[C@@H](n2ccc(NC3CC3O)nc2=O)[C@@H](F)[C@@H]1O (stereo not given in full)
Drug metabolism [3]: metabolite_detected
Drug metabolism [7]: metabolite_detected
Drug metabolism [8]: metabolite_detected

C=C1[C@H](CO)[C@@H](O)C[C@@H]1n1cnc2c(=O)[nH]c(N)nc21
inhibition at 0.1 µM [9]: 57.6%
inhibition at 0.1 µM [10]: 37.8%
inhibition at 0.1 µM [11]: 40.6%
inhibition at 0.1 µM [12]: 38.2%
CC50 [1]: 30 µM
inhibition at 1 µM [2]: 95.7%
inhibition at 0.1 µM [13]: 78.6%
inhibition at 0.1 µM [14]: 47.8%

[N-]=[N+]=N[C@]1(CO)O[C@@H](n2ccc(NC3C(O)C3O)nc2=O)[C@@H](F)[C@@H]1O (stereo not given in full)
Drug metabolism [3]: metabolite_detected

Nc1ccn([C@@H]2CS[C@H](CO)O2)c(=O)n1 [LAMIVUDINE]
inhibition in vivo at 20 mg/kg/day [15]: 79.3%
bioavailability [16]: 18.7%
inhibition in vivo at 20 mg/kg/day [17]: 52.7%
inhibition in vivo at 20 mg/kg/day [18]: 76.2%
inhibition in vivo at 20 mg/kg/day [19]: 84%
Tmax [20]: 5 h
inhibition in vivo at 20 mg/kg/day [21]: 88.6%
inhibition in vivo at 20 mg/kg/day [22]: 82.2%
Cmax [23]: 274 ng/mL

CN(C)c1ccn([C@@H]2O[C@@](CO)(N=[N+]=[N-])[C@@H](O)[C@@H]2F)c(=O)n1
CC50 [1]: > 125 µM
inhibition at 1 µM [2]: 43.6%

CCNc1ccn([C@@H]2O[C@@](CO)(N=[N+]=[N-])[C@@H](O)[C@@H]2F)c(=O)n1
CC50 [1]: > 125 µM
inhibition at 1 µM [2]: 78%

CC(C)Nc1ccn([C@@H]2O[C@@](CO)(N=[N+]=[N-])[C@@H](O)[C@@H]2F)c(=O)n1
CC50 [1]: > 125 µM
inhibition at 1 µM [2]: 43.7%

CNc1ccn([C@@H]2O[C@@](CO)(N=[N+]=[N-])[C@@H](O)[C@@H]2F)c(=O)n1
CC50 [1]: > 125 µM
inhibition at 1 µM [2]: 81.1%

[N-]=[N+]=N[C@]1(CO)O[C@@H](n2ccc(N3CCCC3)nc2=O)[C@@H](F)[C@@H]1O
CC50 [1]: > 125 µM
inhibition at 1 µM [2]: 33.1%

[N-]=[N+]=N[C@]1(CO)O[C@@H](n2ccc(=O)[nH]c2=O)[C@@H](F)[C@@H]1O
CC50 [1]: > 125 µM
inhibition at 1 µM [2]: 75.5%

CCC(C)Nc1ccn([C@@H]2O[C@@](CO)(N=[N+]=[N-])[C@@H](O)[C@@H]2F)c(=O)n1 (stereo not given in full)
CC50 [1]: > 125 µM
inhibition at 1 µM [2]: 61.7%

CCN(CC)c1ccn([C@@H]2O[C@@](CO)(N=[N+]=[N-])[C@@H](O)[C@@H]2F)c(=O)n1
CC50 [1]: > 125 µM
inhibition at 1 µM [2]: 7.1%
